Experimental data as given in patent US7229762B2, “Proteomic screening for redox state dependent protein—protein interactions” (Duke University Medical Center, priority 2003, dated 2007).

Key:
[1] = molecular target: T1, eNOS/caspase-3 interaction in eNOS-expressing HEK cells (Bos taurus, UniProt P29473); assay: Caspase-3 IP from eNOS-expressing HEK cells, amounts of eNOS; format: cell-based, Human; settings: L-NMMA 3 mM with L-arginine 1 mM/Ca2+ 200 μM
T1 construct: expressed in transfected cells; host or cells: HEK-293 expressing eNOS
Method: HEK cell lysates from wild type (WT), nNOS- and eNOS-expressing cells were immunoprecipitated with caspase-3 monoclonal antibodies and blotted (IB) for nNOS, eNOS, and caspase-3, respectively. eNOS, nNOS and caspase-3 in whole cell lysates (Lysate) and in IPs from those lysates (7–20% SDS-PAGE) are shown. Data are representative of 5 similar experiments. eNOS and nNOS were not detectable in control IPs (not shown).
eNOS-expressing HEK cells were treated with L-arginine (1 mM)/Ca^2+ (200 μM) (to activate NOS) in the presence or absence of L-NMMA (3 mM) (to inhibit NOS activation). Amounts of eNOS were quantified from scanned Western blots (7–20% SDS-PAGE) and normalized with respect to amounts of caspase in the IP (bar graph), (n=3).
To probe further the physiological relevance of NO-dependent protein-protein interactions of NOS, the effects of NOS activity on binding of caspase-3 were assessed. […] Thus, NOS reversibly regulates its own binding to capase-3 through NO production.

[2] = tested on: ASM/caspase-3 interaction in nNOS-expressing HEK cells; assay: Caspase-3 IP from nNOS-expressing HEK cells, ASM isoforms; format: cell-based, Human; settings: L-NMMA 3 mM
Method: (§1) Thirty million cells were lysed by gentle homogenization in 1 ml IP buffer (10 mM NaPi, 100 mM NaCl, 1 mM EDTA, pH 7.9, with protease inhibitor cocktail). The supernatant obtained by centrifugation at 20,000 g for 10 min was used for immunoprecipitation. Caspase-3 immunoprecipitates (2.5 μg anti-caspase-3 monoclonal antibody, Transduction Laboratories) were washed, separated on 10% SDS-PAGE, and blotted with ASM antisera (Santa Cruz Biotechnology); 5% of the sample was blotted for caspase-3.
Amounts of ASM isoforms (47, 57, 75 kDa) in caspase-3 immunoprecipitates (IP) from wild type (WT) vs. nNOS-expressing HEK cells were normalized with respect to the amounts of caspase-3 in the IPs (FIG. 2, bar graphs); IPs were performed in the presence and absence of the NOS inhibitor, LNMMA (3 mM). nNOS vs. WT (single asterisk, P<0.01) and nNOS vs. nNOS+LNMMA (double asterisk, p<0.05). A and B, n=7–14; C, n=3–5.
Bulotta et al., 2001; De Nadal et al., 2000). […] To define further the NO requirement for this interaction, caspase-3 was immunoprecipitated from wild-type HEK cells and from HEK cells stably transfected with nNOS (Bredt et al., 1992), in the presence and absence of the NOS inhibitor L-NMMA. Little or no ASM was pulled down in precipitates from wild-type HEK cells, whereas ASM was readily detected in the precipitates from nNOS-expressing cells (FIG. 2). […]

[3] = tested on: caspase-3 interactions with ASM, IRG, PGM, iNOS
Method: For this purpose, protein-protein interactions were determined in a yeast two-hybrid system by the method described in Uetz, P., et al., Nature 403, 623–627 (2000) and Ito, T., et al., PNAS, 97, 1143–1147 (2000). The baits were all known proteins involved in apoptotic cascades. The preys were a library of macrophage genes (mRNA) expressed in response to cytokines that induce apoptosis. Mating pairs or transfectants were exposed to continuous nitric oxide presence at levels and flux rates mimicking those which are generated in macrophages, over 18 hours (the time course, over which apoptosis occurs in these cells). Room air was used in the determinations to mimic the cell condition at first and subsequently low pO2 (about 5 mm Hg) was used to improve specificity and increase yield. New partners and/or inhibition of partners that were otherwise present, were sought.

[4] = molecular target: T2, caspase-3 interaction with iNOS / ASM (Homo sapiens, UniProt P42574); assay: Modified yeast two-hybrid, NO-dependent growth of iNOS/caspase-3 and ASM/caspase-3 clones; format: cell-based; settings: 72 hrs, triple-deficient medium
T2 construct: expressed in transfected cells; host or cells: Saccharomyces cerevisiae CG-1945 Δyhb1
T2 sequence (P42574 1-277): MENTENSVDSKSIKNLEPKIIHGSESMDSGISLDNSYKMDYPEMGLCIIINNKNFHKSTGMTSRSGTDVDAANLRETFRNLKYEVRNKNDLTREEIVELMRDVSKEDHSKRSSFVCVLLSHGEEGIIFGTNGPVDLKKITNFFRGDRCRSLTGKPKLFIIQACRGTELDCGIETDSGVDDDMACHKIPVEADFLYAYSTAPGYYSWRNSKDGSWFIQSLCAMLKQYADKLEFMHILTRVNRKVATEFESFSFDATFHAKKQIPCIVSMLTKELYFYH
Method: (§2) Yeast (Δyhb1) were transformed with Gal4 BD-caspase-3 plasmid (bait) and a cDNA library (Gal4 AD prey plasmids) derived from activated (NO generating) macrophages. Screening was performed as described in the methods below. DETA-NO at less than 300 μM generates NO without inhibiting yeast growth (monitored by absorbance at 600 nm). Steady state NO concentrations are maintained at ˜100 nM–1 μM range for several days as measured with an NO electrode (not shown).
Auxotrophic selection was carried out on agar plates (15 cm in diameter) enriched in 50 mM phosphate buffer (pH 7.2; His-Trp-Leu (triple)-deficient buffered medium (TDBM)). […] Prey plasmids were isolated from positive yeast clones and then re-introduced into the bait strain to confirm bait-prey interactions. Method 2: After cells were seeded on 1.5% agar they were covered with 3% low melting point agar, which in turn was layered with culture medium. NO donors (e.g. DETA-NO; 300 μM final concentration) were added to the liquid layer every 24 hours. Colonies are grown for 4 days as described in ref 9. Method 3:
Auxotrophic selection was carried out in TDBM. Transformation with the cDNA library was followed by overnight growth in medium deficient in tryptophan and leucine. Transformants were then grown for 3 days in His-deficient medium supplemented with DETA-NO (typically 200 μM final concentration). […]

[5] = format: physicochemical
Method: as §2
(§3) To assess the possibility of NO-dependent regulation of protein-protein interactions in a cellular context, a modified yeast two-hybrid screening methodology was developed. The first step was to delete the yeast flavohemoglobin gene (Liu et al., 2000), which consumes NO very efficiently and thus obfuscates NO signaling. […] It was also necessary to establish a concentration range of DETA-NO over which physiological amounts of NO could be generated in these assays without impairing yeast growth (FIG. 1A) (100 μM DETA-NO produces steady state concentrations of ˜300 nM NO in yeast culture medium, as determined using an NO electrode)
Purified caspase-3 was incubated in the presence or absence 20 μM DETA-NO for 60 min (30 nM steady state NO), followed by incubation with ASM at 37° C. for 2 hrs, and IP with caspase-3 antibody. […] S-nitrosylation of caspase-3 by NO was separately verified by photolysis-chemiluminesence (Mannick et al., 1999). The interaction of caspase-3 with ASM was measured as ASM activity in caspase-3 IP's (pH 5.0). Little or no ASM activity was present in IP's with caspase-3 antibody of either caspase-3 or ASM in isolation.
To determine the relevant target(s) of NO, ASM/caspase-3 co-precipitations were carried out following NO treatment of each partner alone. Using an ASM activity assay, the amounts of ASM that could be precipitated with a procaspase-3 antibody was assessed from co-incubates (2 hours at 37° C.) of ASM (20 pmol) and caspase-3 in limiting amounts (2.5 pmol). […]

[6] = molecular target: T3, caspase-3/ASM interaction in HEK-293 cells (Homo sapiens, UniProt P42574); assay: Caspase-3 immunoprecipitation, ASM blot, HEK-293 cells exposed to DETA-NO; format: cell-based; settings: 200 μM DETA-NO
T3 construct: endogenous in cells; host or cells: HEK-293
T3 sequence (P42574 29-277): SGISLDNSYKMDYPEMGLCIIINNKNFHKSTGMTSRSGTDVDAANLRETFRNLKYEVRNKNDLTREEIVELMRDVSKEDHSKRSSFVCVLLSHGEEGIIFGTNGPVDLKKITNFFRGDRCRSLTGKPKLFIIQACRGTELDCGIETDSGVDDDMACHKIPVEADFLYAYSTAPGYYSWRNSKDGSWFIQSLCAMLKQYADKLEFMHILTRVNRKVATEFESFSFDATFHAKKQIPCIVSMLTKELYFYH
T3 sequence (P17405 47-631 partner): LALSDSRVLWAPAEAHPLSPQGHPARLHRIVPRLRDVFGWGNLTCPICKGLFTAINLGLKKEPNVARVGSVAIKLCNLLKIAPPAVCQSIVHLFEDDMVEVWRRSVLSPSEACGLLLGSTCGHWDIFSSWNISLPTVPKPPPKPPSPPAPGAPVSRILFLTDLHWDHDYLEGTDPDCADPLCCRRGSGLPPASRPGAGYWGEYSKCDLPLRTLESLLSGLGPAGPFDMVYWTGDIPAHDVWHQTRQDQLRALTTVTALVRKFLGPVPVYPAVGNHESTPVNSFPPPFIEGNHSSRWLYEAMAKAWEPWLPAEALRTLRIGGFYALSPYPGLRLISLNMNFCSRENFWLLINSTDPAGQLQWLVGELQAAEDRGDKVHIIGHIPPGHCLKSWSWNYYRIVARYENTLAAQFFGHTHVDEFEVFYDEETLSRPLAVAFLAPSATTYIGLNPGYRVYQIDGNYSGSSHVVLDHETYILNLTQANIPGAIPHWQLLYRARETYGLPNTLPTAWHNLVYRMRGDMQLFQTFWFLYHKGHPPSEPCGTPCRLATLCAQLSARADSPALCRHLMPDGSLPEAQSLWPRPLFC
Method: as §1
Bulotta et al., 2001; De Nadal et al., 2000). […] To define further the NO requirement for this interaction, caspase-3 was immunoprecipitated from wild-type HEK cells and from HEK cells stably transfected with nNOS (Bredt et al., 1992), in the presence and absence of the NOS inhibitor L-NMMA. Little or no ASM was pulled down in precipitates from wild-type HEK cells, whereas ASM was readily detected in the precipitates from nNOS-expressing cells (FIG. 2). Moreover, ASM/caspase-3 interactions were observed not only between the 57 kD mature form of ASM, but also with the ASM proform (75 kD) and a smaller processed form (47 kD), which may be alternatively regulated (Ferlinz et al., 1994; Hurwitz et al., 1994).

[7] = tested on: Yeast (Δyhb1); format: cell-based, Saccharomyces cerevisiae; settings: growth monitored by absorbance at 600 nm
Method: The YHB1 gene was deleted from yeast strain CG-1945 and the absence of NO consumption activity was verified (Liu et al., 2000). Yeast two-hybrid screening was then performed in the CG-1945-Ayhbl host. […]
as §2, with “Screening was performed as described in the methods below.” left out
as §3, with “developed.” for “developed. The first step was to delete the yeast flavohemoglobin gene (Liu et al., 2000), which consumes NO very efficiently and thus obfuscates NO signaling.”

Q: What does the source list for CNC(=N)NCCC[C@H](N)C(=O)O [L-NMMA]?
A: effect on eNOS interaction with caspase-3 after NOS activation [1]: almost completely reversed this effect; effect on interaction between ASM isoforms and caspase-3 [2]: significantly reduced the interaction

Q: For OO [hydrogen peroxide], which “effect of presence of hydrogen peroxide on determined interactions” value [3] is on record?
A: did not produce or modify the majority of determined interactions

Q: And the “interaction dependent on hydrogen peroxide in the 4 clones” value ([3]; added repeatedly or generated continuously with glucose oxidase)?
A: none was found

Q: For NCCN(CCN)/[N+]([O-])=N/O [DETA-NO, diethylenetriamine-NO], which “concentration that optimally induced in yeast the interactions of caspase-3 with ASM and iNOS” value [4] is on record?
A: 200 µM

Q: What about the half-life [5] of the same molecule?
A: ~18 h

Q: What about the “steady state / maximum NO concentration” value ([5]; 20 μM DETA-NO, 60 min) of the same molecule?
A: 30 nM

Q: What about the “steady state concentration of NO” value ([5]; 100 μM DETA-NO, yeast culture medium, NO electrode) of the same molecule?
A: ~300 nM

Q: And the “co-precipitation of ASM with caspase-3” value [6]?
A: immunoprecipitation of caspase-3 brought down the 57 kD active form of ASM

Q: What about the “DETA-NO concentration that generates NO without inhibiting yeast growth” value [7] of the same molecule?
A: less than 300 μM
